≈ marks a conversion by molar mass, not a printed value.
Experiments:
[1] = DPPH free radical scavenging assay; conditions: DPPH 0.004% w/v in methanol, absorbance 515 nm, 16 min, three replicates
Protocol: The antioxidant activity of the extract was determined at the Regional Center for Mycology and Biotechnology (RCMB) at Al-Azhar University by the DPPH free radical scavenging assay in triplicate, and average values were considered.
Freshly prepared (0.004% w/v) methanol solution of 2,2-diphenyl-1-picrylhydrazyl (DPPH) radical was prepared and stored at 10 °C in the dark. A methanol solution of the test compound was prepared. About 40 uL aliquot of the methanol solution was added to 3 mL of DPPH solution. Absorbance measurements were recorded immediately with a UV-visible spectrophotometer (Milton Roy, Spectronic 1201). The decrease in absorbance at 515 nm was determined continuously, with data being recorded at 1 min intervals until the absorbance stabilized (16 min). The absorbance of the DPPH radical without antioxidant (control) and the reference compound ascorbic acid were also measured. All the determinations were performed in three replicates and averaged. The percentage inhibition (PI) of the DPPH radical was calculated according to the formula:PI = [{(AC − AT)/AC} × 100] where AC = absorbance of the control at t = 0 min and AT = absorbance of the sample + DPPH at t = 16 min. A 50% inhibitory concentration (IC50) or the concentration required for 50% DPPH radical scavenging activity was calculated.

Aspergillus fumigatus = experiment: Antifungal screening, diffusion agar technique; format: cell-based; conditions: RCMB002008; Aspergillus fumigatus (RCMB 002008); well 6.0 mm, 100 μL tested; three replicates; ketoconazole 100 μg/mL
Protocol: (§1) The complexes were tested in vitro using a diffusion agar technique; well diameter: 6.0 mm (100 μL tested) on four fungi (Aspergillus fumigatus (RCMB 002008), Candida albicans (RCMB 005003 (1) ATCC 10231), Cryptococcus neoformas (RCMB 0049001) and Syncephalastrum racemosum (RCMB 016001 (1)). The positive control was a fungicide (ketoconazole, 100 μg/mL) as well as four bacteria, two Gram-positive strains (Staphylococcus aureus (ATCC 25923) and Bacillus subtilis (RCMB 015 (1) NRRL B-543)), and two Gram-negative strains (Escherichia coli (ATCC 25922) and Proteus Vulgaris (RCMB 004 (1) ATCC 13315)). The positive control was Streptococcus (gentamycin, 4 μg/mL). The inhibitory activity of a compound against an organism is indicated by a clear area around the disc.

Candida albicans = experiment: Antifungal screening, diffusion agar technique; format: cell-based; conditions: ATCC10231; Candida albicans (ATCC 10231); well 6.0 mm, 100 μL tested; three replicates; ketoconazole 100 μg/mL
Protocol: as §1

[2] = tested on: Syncephalastrum racemosum; experiment: Antifungal screening, diffusion agar technique; format: cell-based; conditions: RCMB016001; Syncephalastrum racemosum (RCMB 016001); well 6.0 mm, 100 μL tested; three replicates; ketoconazole 100 μg/mL
Protocol: as §1

Cryptococcus neoformas = experiment: Antifungal screening, diffusion agar technique; format: cell-based; conditions: RCMB0049001; Cryptococcus neoformas (RCMB 0049001); well 6.0 mm, 100 μL tested; three replicates; ketoconazole 100 μg/mL
Protocol: as §1

[3] = tested on: A-549 cells (human lung cancer cell line); experiment: Cytotoxicity against A-549 cells (crystal violet colorimetric viability, 72 h); format: cell-based; conditions: A-549 human lung cancer cell line, 72 h exposure, average of three independent experiments
Protocol: Cancer is a type of malignant disease in which a group of cells appears to grow in an irregular pattern. The only way to treat this is through surgical intervention or chemotherapy, both of which have negative side effects. Although platinum-based complexes such as cis-platin have been used to treat cancer, it is not effective, so in vitro tests for complexes of manganese, cobalt, copper, chromium, and palladium were conducted against two cancer lines, respectively. A-549 and MRC-5 cells were used as test subjects for the cytotoxic activity of Schiff base and aminopyrimidyl complexes in the concentration range of […]. […] As the concentration of the complexes increased, cell viability decreased (Figure 10).
Figure 10 (a) A-549. The dose-response curves of the cytotoxicity of compounds (1–6). Cells were exposed to different concentrations of the compounds for 72 h. Cell viability was determined by a colorimetric method. (b) MRC-5cell lines. The dose-response curves of the cytotoxicity of compounds (1–6) Cells were exposed to different concentrations of the compounds for 72 h. Cell viability was determined by a colorimetric method.
A-549 cells (human Lung cancer cell line) were obtained from VACSERA Tissue Culture Unit.
It is composed of 0.5% (w/v) crystal violet and 50% methanol then made up to volume with ddH2O and filtered through a Whatmann No.1 filter paper. […]

Staphylococcus aureus = experiment: Antibacterial screening, diffusion agar technique; format: cell-based; conditions: Staphylococcus aureus (ATCC 25923), Gram-positive; well 6.0 mm, 100 μL tested; three replicates; gentamycin 4 μg/mL
Protocol: as §1

Bacillus subtilis = experiment: Antibacterial screening, diffusion agar technique; format: cell-based; conditions: Bacillus subtilis (NRRL B-543), Gram-positive; well 6.0 mm, 100 μL tested; three replicates; gentamycin 4 μg/mL
Protocol: as §1

Proteus vulgaris = experiment: Antibacterial screening, diffusion agar technique; format: cell-based; conditions: Proteus vulgaris (ATCC 13315), Gram-negative; well 6.0 mm, 100 μL tested; three replicates; gentamycin 4 μg/mL
Protocol: as §1

Escherichia coli = experiment: Antibacterial screening, diffusion agar technique; format: cell-based; conditions: Escherichia coli (ATCC 25922), Gram-negative; well 6.0 mm, 100 μL tested; three replicates; gentamycin 4 μg/mL
Protocol: as §1

## O=C1O[C@H]([C@@H](O)CO)C(O)=C1O [Ascorbic acid, reference compound]
[1]
  IC50 (antioxidant activity, DPPH radical scavenging): 10210 ± 770 µg/mL (≈ 58 mM)

## CC(=O)N1CCN(c2ccc(OCC3COC(Cn4ccnc4)(c4ccc(Cl)cc4Cl)O3)cc2)CC1 (stereo not shown) [Ketoconazole, reference compound]
Aspergillus fumigatus
  zone of inhibition at 100 µg/mL: 17.4 mm
Candida albicans
  zone of inhibition at 100 µg/mL: 20.4 mm
[2]
  zone of inhibition at 100 µg/mL: 15.3 mm
Cryptococcus neoformas
  zone of inhibition at 100 µg/mL: 24.9 mm

## N.N.[Cl][Pt][Cl] [cisplatin, reference compound]
[3]
  IC50 Value: 7.11 µg/mL

## Gentamycin [reference compound]
Staphylococcus aureus
  Mean Zone of Inhibition: 24.33 mm
Bacillus subtilis
  Mean Zone of Inhibition: 25.93 mm
Proteus vulgaris
  Mean Zone of Inhibition: 25.20 mm
Escherichia coli
  Mean Zone of Inhibition: 29.83 mm

Reference: article PMC10058022, “Physico-Chemical Study of Mn(II), Co(II), Cu(II), Cr(III), and Pd(II) Complexes with Schiff-Base and Aminopyrimidyl Derivatives and Anti-Cancer, Antioxidant, Antimicrobial Applications” (Molecules, 2023)
